Laboratory results published in ChEMBL document CHEMBL5291721, “A preclinical secondary pharmacology resource illuminates target-adverse drug reaction associations of marketed drugs” (Nat Commun, 2023).

Columns and labels:
[1] = molecular target: Beta-1 adrenergic receptor (Homo sapiens, UniProt P08588); type: functional
[2] = molecular target: T1, Alpha-1A adrenergic receptor (Homo sapiens, UniProt P35348); type: functional, cell-based
T1 sequence (P35348 whole entry): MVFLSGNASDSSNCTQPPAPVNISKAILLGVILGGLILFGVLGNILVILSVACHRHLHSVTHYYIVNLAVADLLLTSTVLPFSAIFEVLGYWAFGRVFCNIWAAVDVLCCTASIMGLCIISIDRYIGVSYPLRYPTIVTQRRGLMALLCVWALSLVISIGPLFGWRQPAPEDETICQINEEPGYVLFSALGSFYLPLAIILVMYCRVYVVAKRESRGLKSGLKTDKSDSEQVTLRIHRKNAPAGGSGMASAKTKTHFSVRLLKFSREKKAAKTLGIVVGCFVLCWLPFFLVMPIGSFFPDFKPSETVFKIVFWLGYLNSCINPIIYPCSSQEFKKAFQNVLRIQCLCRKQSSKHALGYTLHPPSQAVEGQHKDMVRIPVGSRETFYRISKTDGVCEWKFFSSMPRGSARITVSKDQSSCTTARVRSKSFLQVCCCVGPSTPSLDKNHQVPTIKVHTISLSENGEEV

Progesterone receptor [3] = molecular target: T2, Progesterone receptor (Homo sapiens, UniProt P06401); type: functional
T2 sequence (P06401 whole entry): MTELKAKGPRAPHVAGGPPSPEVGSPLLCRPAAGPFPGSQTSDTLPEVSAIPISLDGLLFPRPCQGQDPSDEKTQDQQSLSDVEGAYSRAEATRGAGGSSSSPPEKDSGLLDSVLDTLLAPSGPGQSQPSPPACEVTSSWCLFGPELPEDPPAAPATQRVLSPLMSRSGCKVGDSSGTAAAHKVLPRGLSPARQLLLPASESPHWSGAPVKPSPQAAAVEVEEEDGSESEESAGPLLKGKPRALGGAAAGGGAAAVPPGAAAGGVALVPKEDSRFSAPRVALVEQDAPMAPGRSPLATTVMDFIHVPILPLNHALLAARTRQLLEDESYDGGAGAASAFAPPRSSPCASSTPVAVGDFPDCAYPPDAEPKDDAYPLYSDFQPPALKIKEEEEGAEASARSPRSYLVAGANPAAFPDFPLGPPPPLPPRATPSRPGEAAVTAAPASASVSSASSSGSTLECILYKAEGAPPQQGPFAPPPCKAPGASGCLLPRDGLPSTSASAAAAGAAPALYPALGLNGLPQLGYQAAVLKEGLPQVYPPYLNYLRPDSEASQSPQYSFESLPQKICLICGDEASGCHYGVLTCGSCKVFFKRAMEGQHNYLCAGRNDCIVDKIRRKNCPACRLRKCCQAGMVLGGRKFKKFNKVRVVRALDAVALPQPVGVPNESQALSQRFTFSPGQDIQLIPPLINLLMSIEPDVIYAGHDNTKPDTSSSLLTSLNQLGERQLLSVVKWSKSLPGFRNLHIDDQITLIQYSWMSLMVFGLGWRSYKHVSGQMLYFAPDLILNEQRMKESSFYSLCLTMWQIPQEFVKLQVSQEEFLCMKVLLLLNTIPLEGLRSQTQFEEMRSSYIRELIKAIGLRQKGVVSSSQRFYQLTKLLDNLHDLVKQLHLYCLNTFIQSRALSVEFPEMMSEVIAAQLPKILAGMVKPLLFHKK

Histamine H3 receptor = Histamine H3 receptor (Homo sapiens, UniProt Q9Y5N1)
Histamine H3 receptor, sequence (Q9Y5N1 whole entry): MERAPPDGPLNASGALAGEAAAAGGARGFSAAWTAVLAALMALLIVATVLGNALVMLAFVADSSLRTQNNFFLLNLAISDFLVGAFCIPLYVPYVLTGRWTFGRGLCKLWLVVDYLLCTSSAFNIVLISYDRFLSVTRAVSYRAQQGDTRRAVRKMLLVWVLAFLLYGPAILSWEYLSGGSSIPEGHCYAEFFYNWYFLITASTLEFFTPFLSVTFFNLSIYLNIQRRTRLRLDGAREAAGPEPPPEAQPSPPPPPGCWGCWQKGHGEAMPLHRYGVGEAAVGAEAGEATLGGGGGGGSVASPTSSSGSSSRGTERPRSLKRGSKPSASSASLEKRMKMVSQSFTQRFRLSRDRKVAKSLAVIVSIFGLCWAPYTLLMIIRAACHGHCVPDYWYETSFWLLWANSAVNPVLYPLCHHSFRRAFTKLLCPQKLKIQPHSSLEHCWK

Progesterone receptor [4] = molecular target: T2, Progesterone receptor; type: functional; remark: listed apart in the source
[5] = molecular target: Voltage-dependent L-type calcium channel subunit alpha-1C (Rattus norvegicus, UniProt P22002); type: functional
Voltage-dependent L-type calcium channel subunit alpha-1C, sequence (P22002 whole entry): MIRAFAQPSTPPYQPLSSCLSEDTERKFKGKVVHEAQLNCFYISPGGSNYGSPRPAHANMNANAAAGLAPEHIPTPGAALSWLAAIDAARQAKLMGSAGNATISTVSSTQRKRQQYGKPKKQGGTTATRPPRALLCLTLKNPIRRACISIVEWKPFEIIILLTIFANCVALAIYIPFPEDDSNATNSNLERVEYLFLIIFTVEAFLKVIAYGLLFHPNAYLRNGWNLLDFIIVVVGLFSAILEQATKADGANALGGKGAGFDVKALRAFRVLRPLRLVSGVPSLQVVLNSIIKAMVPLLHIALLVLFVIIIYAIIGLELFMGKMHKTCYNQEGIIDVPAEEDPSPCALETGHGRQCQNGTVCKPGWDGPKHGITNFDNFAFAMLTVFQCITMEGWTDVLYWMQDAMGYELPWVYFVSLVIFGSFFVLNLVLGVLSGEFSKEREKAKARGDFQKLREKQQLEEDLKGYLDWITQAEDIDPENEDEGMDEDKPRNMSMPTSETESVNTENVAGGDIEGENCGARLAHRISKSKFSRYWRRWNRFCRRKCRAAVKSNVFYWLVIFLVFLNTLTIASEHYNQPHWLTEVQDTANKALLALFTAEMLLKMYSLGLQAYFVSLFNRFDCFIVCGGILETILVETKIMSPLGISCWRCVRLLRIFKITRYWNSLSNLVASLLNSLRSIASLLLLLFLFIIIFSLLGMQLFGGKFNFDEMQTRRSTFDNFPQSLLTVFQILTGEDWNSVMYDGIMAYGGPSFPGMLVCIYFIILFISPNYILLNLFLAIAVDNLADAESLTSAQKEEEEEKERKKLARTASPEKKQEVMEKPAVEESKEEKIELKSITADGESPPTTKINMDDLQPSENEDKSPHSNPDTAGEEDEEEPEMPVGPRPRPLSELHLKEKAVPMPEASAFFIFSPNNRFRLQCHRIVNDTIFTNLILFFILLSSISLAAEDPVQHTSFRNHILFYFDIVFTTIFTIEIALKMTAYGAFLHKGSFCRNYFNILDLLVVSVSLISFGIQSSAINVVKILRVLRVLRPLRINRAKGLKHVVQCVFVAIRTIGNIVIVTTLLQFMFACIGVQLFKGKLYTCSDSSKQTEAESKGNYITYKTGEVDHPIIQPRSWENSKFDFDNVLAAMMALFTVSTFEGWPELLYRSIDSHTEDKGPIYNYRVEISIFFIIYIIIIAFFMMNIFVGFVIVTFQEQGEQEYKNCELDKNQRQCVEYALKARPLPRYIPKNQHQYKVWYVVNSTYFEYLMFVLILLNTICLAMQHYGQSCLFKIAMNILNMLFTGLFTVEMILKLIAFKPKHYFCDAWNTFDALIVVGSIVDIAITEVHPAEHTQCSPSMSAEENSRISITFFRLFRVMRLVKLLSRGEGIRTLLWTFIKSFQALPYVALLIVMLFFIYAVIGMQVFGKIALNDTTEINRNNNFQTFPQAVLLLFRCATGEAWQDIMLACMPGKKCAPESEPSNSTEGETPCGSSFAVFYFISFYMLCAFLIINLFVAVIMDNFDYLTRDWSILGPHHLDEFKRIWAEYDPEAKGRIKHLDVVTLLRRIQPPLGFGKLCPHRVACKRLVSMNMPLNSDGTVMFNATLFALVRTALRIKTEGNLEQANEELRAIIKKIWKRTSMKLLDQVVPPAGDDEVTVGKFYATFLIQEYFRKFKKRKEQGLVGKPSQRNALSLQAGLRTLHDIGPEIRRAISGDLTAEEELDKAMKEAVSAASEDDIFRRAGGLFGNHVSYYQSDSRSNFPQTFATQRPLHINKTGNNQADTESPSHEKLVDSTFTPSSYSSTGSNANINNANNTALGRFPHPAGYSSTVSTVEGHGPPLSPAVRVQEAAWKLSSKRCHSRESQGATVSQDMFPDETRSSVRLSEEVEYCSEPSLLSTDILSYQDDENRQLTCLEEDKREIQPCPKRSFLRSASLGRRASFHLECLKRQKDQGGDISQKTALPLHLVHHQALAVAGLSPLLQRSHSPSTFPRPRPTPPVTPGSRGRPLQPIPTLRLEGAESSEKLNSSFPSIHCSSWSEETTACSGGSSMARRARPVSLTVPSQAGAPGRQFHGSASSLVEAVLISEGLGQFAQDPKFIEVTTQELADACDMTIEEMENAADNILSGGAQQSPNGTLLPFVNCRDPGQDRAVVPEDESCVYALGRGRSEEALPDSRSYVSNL

D(1A) dopamine receptor = D(1A) dopamine receptor (Homo sapiens, UniProt P21728); type: functional, cell-based
D(1A) dopamine receptor, sequence (P21728 whole entry): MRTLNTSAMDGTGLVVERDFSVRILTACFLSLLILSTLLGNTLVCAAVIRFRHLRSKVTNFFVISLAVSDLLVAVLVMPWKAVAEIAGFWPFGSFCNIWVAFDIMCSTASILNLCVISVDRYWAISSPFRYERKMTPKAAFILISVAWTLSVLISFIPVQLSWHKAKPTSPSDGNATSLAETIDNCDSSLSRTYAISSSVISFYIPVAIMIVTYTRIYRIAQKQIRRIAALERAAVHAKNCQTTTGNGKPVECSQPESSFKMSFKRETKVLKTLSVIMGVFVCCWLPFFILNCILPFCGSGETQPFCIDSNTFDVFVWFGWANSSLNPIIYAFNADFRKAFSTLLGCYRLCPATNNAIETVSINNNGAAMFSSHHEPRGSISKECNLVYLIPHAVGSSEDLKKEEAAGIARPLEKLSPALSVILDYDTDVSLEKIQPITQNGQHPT
Also: assay procedure not described here.

Beta-1 adrenergic receptor, sequence (P08588 whole entry): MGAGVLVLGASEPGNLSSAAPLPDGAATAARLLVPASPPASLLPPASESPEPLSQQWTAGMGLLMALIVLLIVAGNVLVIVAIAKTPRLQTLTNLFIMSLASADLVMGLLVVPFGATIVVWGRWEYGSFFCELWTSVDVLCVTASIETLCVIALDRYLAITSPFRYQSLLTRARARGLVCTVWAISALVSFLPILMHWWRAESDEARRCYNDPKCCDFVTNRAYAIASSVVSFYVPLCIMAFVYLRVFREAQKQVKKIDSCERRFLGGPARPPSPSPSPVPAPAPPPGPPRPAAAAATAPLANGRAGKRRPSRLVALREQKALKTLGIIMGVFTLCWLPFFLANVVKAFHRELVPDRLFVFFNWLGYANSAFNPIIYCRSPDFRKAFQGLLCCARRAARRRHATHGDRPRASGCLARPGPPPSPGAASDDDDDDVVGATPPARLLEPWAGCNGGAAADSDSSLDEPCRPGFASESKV

| Compound | AC50 [1] [µM] | AC50 [2] [µM] | AC50 (Progesterone receptor [3]) [µM] | AC50 (Histamine H3 receptor) [µM] | AC50 (Progesterone receptor [4]) [µM] | AC50 [5] [µM] | AC50 (D(1A) dopamine receptor) [µM] |
| --- | --- | --- | --- | --- | --- | --- | --- |
| CC(CCc1ccc(O)cc1)NCCc1ccc(O)c(O)c1 (configuration not stated) [DOBUTAMINE] | 5.58 | 0.0054 | > 30 | > 30 | > 30 | > 30 | 13 |
| C[C@]12CC[C@@H]3c4ccc(O)cc4C[C@@H](CCCCCCCCC[S+]([O-])CCCC(F)(F)C(F)(F)F)[C@H]3[C@@H]1CC[C@@H]2O (some centres not stated) [FULVESTRANT] | > 30 | > 30 | > 30 | > 30 | 3.6 |  | > 30 |
| OC1(c2ccc(Cl)cc2)c2ccccc2C2=NCCN21 (configuration not stated) [MAZINDOL] | > 30 | > 30 | > 30 | > 30 | > 30 | > 10 | > 30 |
| CC1OC2(CS1)CN1CCC2CC1 (configuration not stated) [CEVIMELINE] | > 10 | > 30 | > 10 |  | > 10 | > 10 | > 30 |
| CC(C)COCC(CN(Cc1ccccc1)c1ccccc1)N1CCCC1 (configuration not stated) [BEPRIDIL] |  |  | > 30 | > 30 | > 30 | 24 | > 30 |
| CCC(C)C1(CC)C(=O)NC(=O)NC1=O (configuration not stated) [BUTABARBITAL] | > 30 | > 30 | > 30 | > 30 | > 30 |  | > 30 |
| CN(C)CCCNc1c2ccccc2nc2cccc([N+](=O)[O-])c12 [NITRACRINE] | > 30 | > 30 | > 30 | > 10 | > 30 | > 30 |  |
| CC(C)NCC(O)c1ccc(O)c(O)c1 (configuration not stated) [ISOPROTERENOL] |  |  | > 30 | > 10 | > 30 | > 10 | > 30 |
| Cc1noc(NS(=O)(=O)c2ccc(N)cc2)c1C [SULFISOXAZOLE] | > 10 | > 30 | > 10 | > 10 | > 10 | > 10 | > 10 |
| Cc1cc2cc3c(C)cc(=O)oc3c(C)c2o1 [TRIOXSALEN] | > 10 |  | > 30 |  | > 30 | > 10 | > 10 |
| C=CCNc1nc(NCC=C)nc(N2CCN(C(c3ccc(F)cc3)c3ccc(F)cc3)CC2)n1 [ALMITRINE] | > 30 |  | > 30 | > 30 | > 30 | > 30 | > 30 |
| C/N=C(\NC)NCc1ccccc1 [BETHANIDINE] |  | > 30 | > 30 | > 30 | > 30 |  | > 30 |
| CC(C)[C@H](N)C(=O)OCC(CO)OCn1cnc2c(=O)nc(N)[nH]c21 (some centres not stated) [VALGANCICLOVIR] | > 30 |  | > 30 | > 30 | > 30 | > 30 | > 30 |
| CC(=O)N[C@@H](CS)C(=O)O [ACETYLCYSTEINE] | > 30 | > 30 | > 30 | > 30 | > 30 |  | > 30 |
| CCC1(c2ccccc2)CCC(=O)NC1=O (configuration not stated) [GLUTETHIMIDE] | > 10 | > 30 | > 10 | > 10 | > 10 | > 10 | > 10 |
| COc1cc(N)c(Cl)cc1C(=O)NC1CCN(Cc2ccccc2)CC1 [CLEBOPRIDE] |  | > 30 | > 30 | > 30 | > 30 | > 30 |  |
| Nc1ncn([C@H]2C[C@H](O)[C@@H](CO)O2)c(=O)n1 [DECITABINE] | 19.1 |  | > 30 | > 30 | > 30 | > 30 | > 30 |
| Cc1cccc(N2CC(CO)OC2=O)c1 (configuration not stated) [TOLOXATONE] | > 30 | > 30 | > 30 | > 30 | > 30 | > 30 | > 30 |
| Cc1cc(C(C)(C)C)cc(C)c1CC1=NCCN1 [XYLOMETAZOLINE] | > 30 | 0.0023 | > 30 | 6.9 | > 30 | > 30 | > 30 |
| COCC1=C(C(=O)O)N2C(=O)[C@@H](NC(=O)/C(=N\OC)c3csc(N)n3)[C@H]2SC1 [CEFPODOXIME] | > 30 | > 30 | > 30 | > 30 | > 30 | > 30 | > 30 |
| Clc1ccc2c(N3CCN(CCCN4CCN(c5ccnc6cc(Cl)ccc56)CC4)CC3)ccnc2c1 [PIPERAQUINE] | > 30 | > 30 | > 30 | 6.1 | > 30 | > 30 | > 30 |
| CCOC(=O)c1cncn1[C@H](C)c1ccccc1 [ETOMIDATE] | > 10 | > 30 | > 10 | > 10 | > 10 | > 10 | > 10 |
| Clc1ccc(C(Cn2ccnc2)OCc2ccsc2Cl)c(Cl)c1 (configuration not stated) [TIOCONAZOLE] | 24.3 | > 30 | > 30 | > 30 | 10.3 | 23 | > 30 |
| CCCN[C@H]1CCc2nc(N)sc2C1 [PRAMIPEXOLE] | > 30 | > 30 | > 30 | > 10 | > 30 | > 10 |  |
| CCOC(=O)C1=C[C@]2(CC)CCCN3CCc4c(n1c1ccccc41)[C@@H]32 [VINPOCETINE] | > 30 | > 30 | > 30 | 18 | > 30 |  | > 30 |
| CCC(C)C(CC)C(N)=O (configuration not stated) [VALNOCTAMIDE] | > 30 | > 30 | > 30 | > 30 | > 30 |  | > 30 |
| CC1(C)S[C@@H]2[C@H](NC(=O)[C@H](N)c3ccccc3)C(=O)N2[C@H]1C(=O)OCOC(=O)[C@@H]1N2C(=O)C[C@H]2S(=O)(=O)C1(C)C [SULTAMICILLIN] |  | > 30 | > 30 | > 30 | > 30 | > 30 | > 30 |
